Data on 1 molecule can be found in patent publication US5783247A, “Flavoring composition containing oxidized triglyceride fats, fatty acids, of fatty acid derivatives” (Van Den Berg Foods Co., Division of Conopco, Inc., priority 1993, dated 1998).

SMILES strings stand for the structures.

This series is described as follows: Induction period of fat with anti-oxidant. The note with it: calculated on the fat; induction period established at 100° C. Format: physicochemical. From the text: Preferably the anti-oxidant is selected from the group consisting of natural and nature-identical anti-oxidants, citric acid, tartaric acid and precursors thereof. The most preferred anti-oxidant is α-tocopherol and mixtures of tocopherols, which are commercially available. Alpha-tocopherol is commonly present as a native anti-oxidant in vegetable fat. About 0.1 wt. % (calculated on the fat) of alpha-tocopherol is sufficient for increasing the induction period of the fat by a factor of 1.5 (effective concentration). The induction period is established at 100° C., using the method described in J. Am. Oil. Chem. Soc. Vol. 63, 6 (1986), 192-195.

For the molecule `Cc1c(C)c2c(c(C)c1O)CCC(C)(CCCC(C)CCCC(C)CCCC(C)C)O2` (stereo not drawn) [alpha-tocopherol], the “effective concentration (increasing the induction period of the fat by a factor of 1.5)” value is reported as “About 0.1 wt. %”.
